From PMC4138103 (PLoS ONE, 2014)
Where two headings read alike, the source gives them in different places.

Tested on: Sprague-Dawley rats
Assay: Organ weights
Assay type: in vivo, Rattus norvegicus
Design: key to Dose response, Ovaries weight: D: significant dose response (for results see Table 2 in the text); T: significant trend
Details: for Emax: Rattus norvegicus; for Organ weight, Adrenals / Organ weight, Brain / Organ weight, Heart / Organ weight, Kidneys / Organ weight, Ovaries / Organ weight, Pituitary / Organ weight, Spleen / Organ weight, Thymus / Organ weight, Thyroid gland / Organ weight, Uterus: group mean
Procedure: At the end of the treatment period (males on study day 28–31, females on study day 28–32) the rats were anesthetized with CO2/O2 (70/30%). Blood samples were drawn from the left ventricle using Venoject needles (Terumo) and Vacuette EDTA and serum blood collection tubes, and the rats were killed by exsanguination. EDTA blood was used for hematology investigations (see below). Serum was separated, divided into aliquots, frozen in liquid nitrogen and stored at −70°C for further analysis (see below). A complete necropsy (macroscopic observations, tissue sampling for molecular biology, biochemistry, histopathology, analytical chemistry and organ weights) was performed on each rat. The weights of the following organs were recorded: adrenals, brain, epididymides, heart, kidneys, liver, lungs, ovaries, pituitary, prostate (ventral), seminal vesicles, spleen, testes, thymus, thyroids (with parathyroids) and uterus. For molecular biology and biochemical analyses samples from brain, liver, kidney, bones, and several other tissues were snap frozen in liquid nitrogen and stored at −80°C for further analysis. […] Tissue samples for histopathology were preserved in 10% neutral buffered formalin except testis and epididymis, which were fixed in Bouin's solution for 24 h after which they were transferred into 70% ethanol.
Data were also analyzed using the BMD method, which is based on dose-response modeling of the full data set using a nested family of exponential and Hill models. The analyses were done on data of males and females combined, using sex as a covariate. […] In that case, different Critical Effect Doses (CEDs) and CEDs at the lowest bound of the confidence interval (CED-L) were generated for each sex. If no difference between sexes is detected, a CED and CED-Ls for the combined data is generated. However, this was also done if the curve fits are close, and separate analyses for males and females were then performed manually. CEDs and CED-Ls were calculated at the predefined Critical Effect Size (CES) of 5% (EFSA standard) or 10%.

[1] = F, CES 5%, model E2, adipose tissue concentration based
[2] = F, CES 5%, model E4, adipose tissue concentration based
[3] = F, CES 10%, model E2, adipose tissue concentration based
[4] = F, CES 10%, model E4, adipose tissue concentration based
[5] = M, CES 5%, model E2, adipose tissue concentration based
[6] = M, CES 5%, model E4, adipose tissue concentration based
[7] = M, CES 10%, model E2, adipose tissue concentration based
[8] = M, CES 10%, model E4, adipose tissue concentration based
[9] = females, total dose 0-1700 mg/kg bw
[10] = females, CES 5%, total dose based
[11] = females, CES 10%, total dose based
[12] = females, adipose tissue concentration based
[13] = females, total dose 10 mg/kg bw
[14] = females, total dose 30 mg/kg bw
[15] = females, total dose 100 mg/kg bw
[16] = females, total dose 300 mg/kg bw
[17] = females, total dose 1000 mg/kg bw

Clc1cc(Cl)c(-c2cc(Cl)c(Cl)c(Cl)c2Cl)cc1Cl [PCB 180, 2,2′,3′,4,4′,5,5′-heptachlorobiphenyl]
CED, Thyroid gland weight [1]: 3010 µg/g lipid
CED-L, Thyroid gland weight [1]: 1698 µg/g lipid
CED, Liver weight [2]: 512 µg/g lipid
CED, Ovaries weight [2]: 201 µg/g lipid
CED-L, Liver weight [2]: 263 µg/g lipid
CED-L, Ovaries weight [2]: 31.7 µg/g lipid
CED, Thyroid gland weight [3]: 6190 µg/g lipid
CED-L, Thyroid gland weight [3]: 3488 µg/g lipid
CED, Liver weight [4]: 1090 µg/g lipid
CED, Ovaries weight [4]: 510 µg/g lipid
CED-L, Liver weight [4]: 565 µg/g lipid
CED-L, Ovaries weight [4]: 79.6 µg/g lipid
CED, Thyroid gland weight [5]: 1030 µg/g lipid
CED-L, Thyroid gland weight [5]: 720 µg/g lipid
CED, Liver weight [6]: 42.3 µg/g lipid
CED-L, Liver weight [6]: 19.8 µg/g lipid
CED, Thyroid gland weight [7]: 2010 µg/g lipid
CED-L, Thyroid gland weight [7]: 1407 µg/g lipid
CED, Liver weight [8]: 88.4 µg/g lipid
CED-L, Liver weight [8]: 41.3 µg/g lipid
Emax (F, model E2, controls vs high dose according to the fitted model, read-out: Maximum response, Relative thyroid gland weight): -16.5%
Emax (F, model E2, controls vs high dose according to the fitted model, read-out: Maximum response, Thyroid gland weight): -17.6%
Emax (F, model E4, controls vs high dose according to the fitted model, read-out: Maximum response, Liver weight): 43.1%
Emax (F, model E4, controls vs high dose according to the fitted model, read-out: Maximum response, Ovaries weight): 17%
Emax (F, model E4, controls vs high dose according to the fitted model, read-out: Maximum response, Relative liver weight): 44.8%
Emax (females, controls vs high dose, fitted model, read-out: Liver weight, Maximum response): 45%
Emax (females, controls vs high dose, fitted model, read-out: Ovaries weight, Maximum response): 17%
Emax (females, controls vs high dose, fitted model, read-out: Relative liver weight, Maximum response): 46.2%
Emax (females, controls vs high dose, fitted model, read-out: Relative thyroid gland weight, Maximum response): -17%
Emax (females, controls vs high dose, fitted model, read-out: Thyroid gland weight, Maximum response): -17.9%
Emax (males, controls vs high dose, fitted model, read-out: Liver weight, Maximum response): 66%
Emax (males, controls vs high dose, fitted model, read-out: Relative liver weight, Maximum response): 67%
Emax (males, controls vs high dose, fitted model, read-out: Relative thymus weight, Maximum response): 17.1%
Emax (males, controls vs high dose, fitted model, read-out: Relative thyroid gland weight, Maximum response): 45.2%
Emax (F, model E5, controls vs high dose according to the fitted model, read-out: Maximum response, Relative ovaries weight): 16%
Emax (model E2, controls vs high dose according to the fitted model, read-out: Maximum response, Relative thymus weight): 17.6%
Emax (model E2, controls vs high dose according to the fitted model, read-out: Maximum response, Relative thyroid gland weight): 45.7%
Emax (model E2, controls vs high dose according to the fitted model, read-out: Maximum response, Thyroid gland weight): 41.9%
Emax (model E4, controls vs high dose according to the fitted model, read-out: Maximum response, Liver weight): 65%
Emax (model E4, controls vs high dose according to the fitted model, read-out: Maximum response, Relative liver weight): 66%
Thyroid weight, max. decrease (females): 18%
Dose response, Ovaries weight [9]: D
Dose response, Thyroid gland weight [9]: D, T
Liver weight, CED [10]: 225 mg/kg bw
Liver weight, CED-L [10]: 188 mg/kg bw
Ovaries weight, CED [10]: 46.8 mg/kg bw
Ovaries weight, CED-L [10]: 6.15 mg/kg bw
Thyroid gland weight, CED [10]: 443 mg/kg bw
Thyroid gland weight, CED-L [10]: 257 mg/kg bw
Liver weight, CED [11]: 439 mg/kg bw
Liver weight, CED-L [11]: 368 mg/kg bw
Ovaries weight, CED [11]: 120 mg/kg bw
Ovaries weight, CED-L [11]: 15.4 mg/kg bw
Thyroid gland weight, CED [11]: 910 mg/kg bw
Thyroid gland weight, CED-L [11]: 528 mg/kg bw
Liver weight, CED [12]: 512 µg/g lipid
Ovary weight, CED [12]: 201 µg/g lipid
Thyroid weight, CED [12]: 3010 µg/g lipid
Liver weight, Maximum response (females, controls vs high dose, fitted model): 44.6%
Organ weight, Adrenals (females, total dose 3 mg/kg bw): 0.0648 g
Organ weight, Brain (females, total dose 3 mg/kg bw): 1.60 g
Organ weight, Heart (females, total dose 3 mg/kg bw): 0.958 g
Organ weight, Kidneys (females, total dose 3 mg/kg bw): 1.43 g
Organ weight, Ovaries (females, total dose 3 mg/kg bw): 0.093 g
Organ weight, Pituitary (females, total dose 3 mg/kg bw): 0.0112 g
Organ weight, Spleen (females, total dose 3 mg/kg bw): 0.728 g
Organ weight, Thymus (females, total dose 3 mg/kg bw): 0.528 g
Organ weight, Thyroid gland (females, total dose 3 mg/kg bw): 0.0202 g
Organ weight, Uterus (females, total dose 3 mg/kg bw): 0.372 g
Organ weight, Adrenals [13]: 0.0640 g
Organ weight, Brain [13]: 1.59 g
Organ weight, Heart [13]: 0.884 g
Organ weight, Kidneys [13]: 1.46 g
Organ weight, Ovaries [13]: 0.086 g
Organ weight, Pituitary [13]: 0.0124 g
Organ weight, Spleen [13]: 0.722 g
Organ weight, Thymus [13]: 0.470 g
Organ weight, Thyroid gland [13]: 0.0188 g
Organ weight, Uterus [13]: 0.492 g
Organ weight, Adrenals [14]: 0.0618 g
Organ weight, Brain [14]: 1.61 g
Organ weight, Heart [14]: 0.870 g
Organ weight, Kidneys [14]: 1.45 g
Organ weight, Ovaries [14]: 0.096 g
Organ weight, Pituitary [14]: 0.0124 g
Organ weight, Spleen [14]: 0.696 g
Organ weight, Thymus [14]: 0.494 g
Organ weight, Thyroid gland [14]: 0.0169 g
Organ weight, Uterus [14]: 0.353 g
Organ weight, Adrenals [15]: 0.0612 g
Organ weight, Brain [15]: 1.62 g
Organ weight, Heart [15]: 0.896 g
Organ weight, Kidneys [15]: 1.46 g
Organ weight, Ovaries [15]: 0.091 g
Organ weight, Pituitary [15]: 0.0122 g
Organ weight, Spleen [15]: 0.676 g
Organ weight, Thymus [15]: 0.480 g
Organ weight, Thyroid gland [15]: 0.0213 g
Organ weight, Uterus [15]: 0.368 g
Organ weight, Adrenals [16]: 0.0686 g
Organ weight, Brain [16]: 1.60 g
Organ weight, Heart [16]: 0.908 g
Organ weight, Kidneys [16]: 1.45 g
Organ weight, Ovaries [16]: 0.110 g
Organ weight, Pituitary [16]: 0.0121 g
Organ weight, Spleen [16]: 0.650 g
Organ weight, Thymus [16]: 0.498 g
Organ weight, Thyroid gland [16]: 0.0176 g
Organ weight, Uterus [16]: 0.352 g
Organ weight, Adrenals [17]: 0.0641 g
Organ weight, Brain [17]: 1.59 g
Organ weight, Heart [17]: 0.896 g
Organ weight, Kidneys [17]: 1.49 g
Organ weight, Ovaries [17]: 0.103 g
Organ weight, Pituitary [17]: 0.0112 g
